The supplement of paper PMC5579334
± gives the standard deviation of the averaged measurements.

What was measured:
[1] = test system: HSC2 (primary human Schwann cells); assay: drug sensitivity score (DSS, CellTiter-Glo viability, 72 h) (DSS (dimensionless)); higher = more sensitive; extreme values may be limits of the assay
In short: (§1)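 MPNST cell lines and primary human Schwann cells were seeded at 750–1000 cells per well into 384-well plates preprinted with each compound at five concentrations in 10-fold steps, then incubated 72 h at 37 °C, 5% CO2. CellTiter-Glo ATP luminescence gave viability, scaled between vehicle and positive-control wells, with duplicates averaged where present. Curves were fitted with a four-parameter logistic model. Percent inhibition refers to the top concentration, while drug sensitivity score and relative IC50, censored at the top concentration, come from these fits.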

[2] = test system: HSC1 (primary human Schwann cells); assay: as above
In short: as §1

HS-Sch-2 [3] = assay: as above
In short: as §1

S462 [4] = assay: as above
In short: as §1

STS26T [5] = assay: as above
In short: as §1

S1507-2 [6] = assay: as above
In short: as §1

YST-1 [7] = assay: as above
In short: as §1

HS-PSS [8] = assay: as above
In short: as §1

ST8814 [9] = assay: as above
In short: as §1

[10] = test system: HSC2 (primary human Schwann cells); assay: drug sensitivity score (DSS, CellTox-Green cytotoxicity, 72 h) (DSS (dimensionless)); higher = more cytotoxic; extreme values may be limits of the assay
In short: (§2)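 For 72 h at 37 °C, MPNST cell lines and primary human Schwann cells were exposed in 384-well plates to five 10-fold compound dilutions. CellTox-Green, added before seeding at a final 1:1000 dilution, gave fluorescence from DNA released by disrupted cells. Signals were scaled to vehicle and positive-control wells, cultures failing plate quality control were left out, and four-parameter logistic fits were applied. Relative IC50 and drug sensitivity score were derived from the fits, with IC50 censored at the top concentration.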

[11] = test system: HSC1 (primary human Schwann cells); assay: as above
In short: as §2

STS26T [12] = assay: as above
In short: as §2

S1507-2 [13] = assay: as above
In short: as §2

HS-PSS [14] = assay: as above
In short: as §2

ST8814 [15] = assay: as above
In short: as §2

[16] = test system: HSC2 (primary human Schwann cells); assay: % inhibition of CellTiter-Glo viability at highest tested concentration (72 h), relative to DMSO and benzethonium chloride controls; higher = more inhibition
In short: as §1

[17] = test system: HSC1 (primary human Schwann cells); assay: as above
In short: as §1

HS-Sch-2 [18] = assay: as above
In short: as §1

S462 [19] = assay: as above
In short: as §1

STS26T [20] = assay: as above
In short: as §1

S1507-2 [21] = assay: as above
In short: as §1

YST-1 [22] = assay: as above
In short: as §1

HS-PSS [23] = assay: as above
In short: as §1

ST8814 [24] = assay: as above
In short: as §1

| Compound | drug sensitivity score [1] | drug sensitivity score [2] | drug sensitivity score (HS-Sch-2 [3]) | drug sensitivity score (S462 [4]) | drug sensitivity score (STS26T [5]) | drug sensitivity score (S1507-2 [6]) | drug sensitivity score (YST-1 [7]) | drug sensitivity score (HS-PSS [8]) | drug sensitivity score (ST8814 [9]) | drug sensitivity score [10] | drug sensitivity score [11] | drug sensitivity score (STS26T [12]) | drug sensitivity score (S1507-2 [13]) | drug sensitivity score (HS-PSS [14]) | drug sensitivity score (ST8814 [15]) | % inhibition [16] | % inhibition [17] | % inhibition (HS-Sch-2 [18]) | % inhibition (S462 [19]) | % inhibition (STS26T [20]) | % inhibition (S1507-2 [21]) | % inhibition (YST-1 [22]) | % inhibition (HS-PSS [23]) | % inhibition (ST8814 [24]) |
| --- | --- | --- | --- | --- | --- | --- | --- | --- | --- | --- | --- | --- | --- | --- | --- | --- | --- | --- | --- | --- | --- | --- | --- | --- |
| NC(=O)NO [Hydroxyurea] (max concentration tested 100000 nM) | 0 | 0.337 | 0.56 | 0 | 0 | 0 | 0 | 0 | 0 | 0 | 0 | 0 | 0 | 0 | 0 | 9.58% | 16.3% | 20.8% | -3.38 ± 4.4% | 3.66% | 5.18 ± 7.5% | 8.97% | 9.89% | 3.1% |
| Nc1ccn([C@@H]2O[C@H](CO)[C@@H](O)[C@@H]2O)c(=O)n1 [Cytarabine] (max concentration tested 10000 nM) | 14 | 10.8 | 9.14 | 20 ± 0.39 | 13.8 | 6.29 ± 0.62 | 13.2 | 10.2 | 12.1 | 4.6 | 5.58 | 5.45 | 0.68 ± 0.19 | 5.69 | 7.9 | 80.3% | 65.1% | 69.3% | 96.4 ± 1.9% | 74.7% | 66.4 ± 5.8% | 69.2% | 65.1% | 90.2% |
| Nc1cccc2c1C(=O)N(C1CCC(=O)NC1=O)C2=O (stereo not drawn) [Pomalidomide] (max concentration tested 10000 nM) | 0 | 0 | 0 | 0.575 ± 0.81 | 0 | 0 | 0 | 0 | 0 | 0 | 0 | 0 | 0.571 ± 0.72 | 0 | 0 | -10.6% | 8.79% | -6.26% | 8.99 ± 10% | 2.08% | -0.849 ± 0.56% | -0.59% | -13.4% | 8.53% |
| COC1=CC(c2cc3ccccc3[nH]2)=N/C1=C\c1[nH]c(C)cc1C [Obatoclax] (max concentration tested 10000 nM) | 8.2 | 8.07 | 2.53 | 7.25 ± 0.51 | 5.87 | 7.89 ± 1.2 | 2.23 | 2.94 | 5.7 | 2.43 | 4.21 | 3.1 | 5.25 ± 0.56 | 0 | 4.99 | 81.8% | 80.1% | 31.2% | 89.3 ± 2.9% | 81.5% | 95.5 ± 2% | 25.6% | 39.5% | 93.7% |
| COc1cc2c(NC3CCN(C(C)C)CC3)nc(C3CCCCC3)nc2cc1OCCCN1CCCC1 [UNC0638] (max concentration tested 10000 nM) | 0.116 | 0.362 | 7.32 | 6.31 ± 2.1 | 5.05 | 8.72 ± 0.32 | 6.1 | 8.75 | 6.45 | 0 | 0 | 5.16 | 23.4 ± 25 | 6.72 | 7.41 | 14.9% | 21.5% | 101% | 98.9 ± 1.6% | 99.1% | 99.6 ± 1% | 100% | 101% | 98.6% |
| Nc1nc(OCc2cc(Br)cs2)c2[nH]cnc2n1 [Lomeguatrib] (max concentration tested 10000 nM) | 0 | 0 | 0 | 0 | 0 | 0 | 0 | 0.77 | 0 | 0 | 0 | 0 | 0 | 0 | 0 | -5.93% | -5.66% | -6.3% | -14 ± 0.99% | -6.97% | -7.24 ± 3.2% | -1.6% | 15.1% | -0.939% |
| C[C@@]1(C(=O)Nc2ccc(F)nc2)CCCN1c1nc(Nc2cc(C3CC3)n[nH]2)c2cccn2n1 (max concentration tested 10000 nM) | 16.2 | 14.5 | 9.41 | 15.5 ± 0.72 | 8.67 | 14.5 ± 2.5 | 25.8 | 7.91 | 13.1 | 9.9 | 7.13 | 11.7 | 9.5 ± 0.59 | 3.23 | 13 | 96.7% | 94.8% | 89.1% | 92.1 ± 1.2% | 64% | 99.4 ± 1.5% | 74.3% | 87.3% | 93.2% |
